In patent US6737383B1, “Herbicidal oxadiazolidines” (priority 1999, dated 2004):

Assays:
[1] = test system: blackgrass; experiment: Test B pre/postemergence blackgrass; type: in vivo, Alopecurus myosuroides
Method in brief: (§1)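 Response is a visual 0-to-10 score relative to untreated plants, where 0 means no effect and 10 means complete control, taken twelve to sixteen days after application. Treatments went onto soil at planting and onto foliage of 1- to 4-leaf plants, using a surfactant-containing non-phytotoxic solvent.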

[2] = test system: wild oat; experiment: Test B pre/postemergence wild oat; type: in vivo, Avena fatua
Method in brief: as §1

[3] = test system: surinam grass; experiment: Test B pre/postemergence surinam grass; type: in vivo, Brachiaria decumbens
Method in brief: as §1

[4] = test system: crabgrass; experiment: Test B pre/postemergence crabgrass; type: in vivo, Digitaria sanguinalis
Method in brief: as §1

[5] = test system: sugar beet; experiment: Test B pre/postemergence sugar beet; type: in vivo, Beta vulgaris
Method in brief: as §1

[6] = test system: purple nutsedge; experiment: Test B pre/postemergence purple nutsedge; type: in vivo, Cyperus rotundus
Method in brief: as §1

[7] = test system: smallflower flatsedge; experiment: Test B flood test smallflower flatsedge; type: in vivo, Cyperus difformis
Method in brief: (§2)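 Read-out is a visual response score from 0 (no effect) to 10 (complete control), assigned by comparison with untreated controls. Treatment was applied at the 2-leaf stage, and plants stayed in the greenhouse for twelve to sixteen days before scoring.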

[8] = test system: soybean; experiment: Test B pre/postemergence soybean; type: in vivo, Glycine max
Method in brief: as §1

[9] = test system: velvetleaf; experiment: Test B pre/postemergence velvetleaf; type: in vivo, Abutilon theophrasti
Method in brief: as §1

[10] = test system: bamyardgrass; experiment: Test B flood test barnyardgrass; type: in vivo, Echinochloa crus-galli
Method in brief: as §2

[11] = test system: corn; experiment: Test B pre/postemergence corn; type: in vivo, Zea mays
Method in brief: as §1

[12] = test system: cocklebur; experiment: Test B pre/postemergence cocklebur; type: in vivo, Xanthium strumarium
Method in brief: as §1

[13] = test system: rice; experiment: Test B flood test rice; type: in vivo, Oryza sativa
Method in brief: as §2

[14] = test system: bedstraw; experiment: Test B pre/postemergence bedstraw; type: in vivo, Galium aparine
Method in brief: as §1

[15] = test system: wheat; experiment: Test B pre/postemergence wheat; type: in vivo, Triticum aestivum
Method in brief: as §1

[16] = test system: duck salad; experiment: Test B flood test duck salad; type: in vivo, Heteranthera limosa
Method in brief: as §2

[17] = Postemergence, Rate 62 g/ha, scale 0 to 10, 0 is no effect, 10 is complete control
[18] = Postemergence, Rate 250 g/ha, scale 0 to 10, 0 no effect, 10 complete control
[19] = Preemergence, Rate 62 g/ha, scale 0 to 10 (0 no effect, 10 complete control)
[20] = Preemergence, Rate 125 g/ha, scale 0 to 10 (0 no effect, 10 complete control)
[21] = Preemergence, Rate 250 g/ha, scale of 0 to 10 where 0 is no effect and 10 is complete control
[22] = Preemergence, Rate 500 g/ha, scale 0 (no effect) to 10 (complete control)
[23] = Rate 125 g/ha, Postemergence, scale 0 to 10, 0 no effect, 10 complete control
[24] = Rate 500 g/ha, Postemergence, scale 0 to 10, 0 no effect, 10 complete control
[25] = Rate 125 g/ha, Postemergence section (flood test species), scale 0 to 10, 0 no effect, 10 complete control
[26] = Rate 500 g/ha, listed under Postemergence (flood test species), scale 0 to 10, 0 no effect, 10 complete control
[27] = flood test, listed under Postemergence, Rate 250 g/ha, scale 0 to 10, 0 no effect, 10 complete control

COc1cccc(C)c1-n1c(=O)on(C(=O)N(c2ccc(F)cc2)C(C)C)c1=O [Compound 62]
6: Plant response rating, Crabgrass [4, 21] | Cocklebur plant response rating [12, 18] | Cocklebur plant response rating [12, 24]
9: Crabgrass plant response rating [4, 22]
3: Wild oats plant response rating [2, 18] | Wild oats plant response rating [2, 24] | Plant response rating, Crabgrass [4, 20] | Nutsedge plant response rating [6, 24] | Soybean plant response rating [8, 24]
4: Blackgrass plant response rating [1, 22] | B. signalgrass plant response rating ([3]; Rate 500 g/ha, Postemergence, scale of 0 to 10 where 0 is no effect and 10 is complete control) | Cocklebur plant response rating [12, 23] | Bedstraw plant response rating [14, 22]
5: Sugarbeets plant response rating [5, 24] | Cocklebur plant response rating [12, 22]
7: Crabgrass plant response rating [4, 24] | Velvetleaf plant response rating [9, 24]
2: Plant response rating, Blackgrass [1, 21] | Blackgrass plant response rating [1, 24] | B. signalgrass plant response rating [3, 18] | Crabgrass plant response rating [4, 19] | Soybean plant response rating [8, 18] | Velvetleaf plant response rating [9, 18] | Bedstraw plant response rating [14, 18]
0: Blackgrass plant response rating [1, 17] | Blackgrass plant response rating [1, 18] | Blackgrass plant response rating [1, 19] | Plant response rating, Blackgrass [1, 20] | Blackgrass plant response rating [1, 23] | Wild oats plant response rating [2, 17] | Wild oats plant response rating [2, 19] | Plant response rating, Wild oats [2, 20] | Plant response rating, Wild oats [2, 21] | Wild oats plant response rating [2, 22] | Wild oats plant response rating [2, 23] | B. signalgrass plant response rating [3, 17] | B. signalgrass plant response rating [3, 19] | Plant response rating, B. signalgrass [3, 20] | Plant response rating, B. signalgrass [3, 21] | B. signalgrass plant response rating [3, 22] | B. signalgrass plant response rating [3, 23] | Crabgrass plant response rating [4, 17] | Crabgrass plant response rating [4, 18] | Crabgrass plant response rating [4, 23] | Sugarbeets plant response rating [5, 17] | Sugarbeets plant response rating [5, 18] | Sugarbeets plant response rating [5, 19] | Plant response rating, Sugarbeets [5, 20] | Plant response rating, Sugarbeets [5, 21] | Sugarbeets plant response rating [5, 22] | Sugarbeets plant response rating [5, 23] | Nutsedge plant response rating [6, 17] | Nutsedge plant response rating [6, 18] | Nutsedge plant response rating [6, 19] | Plant response rating, Nutsedge [6, 20] | Plant response rating, Nutsedge [6, 21] | Nutsedge plant response rating [6, 22] | Nutsedge plant response rating [6, 23] | S. Flatsedge plant response rating [7, 17] | S. Flatsedge plant response rating [7, 25] | S. Flatsedge plant response rating [7, 26] | S. Flatsedge plant response rating [7, 27] | Soybean plant response rating [8, 19] | Plant response rating, Soybean [8, 20] | Plant response rating, Soybean [8, 21] | Soybean plant response rating [8, 22] | Velvetleaf plant response rating [9, 17] | Velvetleaf plant response rating [9, 19] | Plant response rating, Velvetleaf [9, 20] | Plant response rating, Velvetleaf [9, 21] | Velvetleaf plant response rating [9, 22] | Velvetleaf plant response rating [9, 23] | Barnyardgrass plant response rating [10, 17] | Barnyardgrass plant response rating [10, 25] | Barnyardgrass plant response rating [10, 26] | Barnyardgrass plant response rating [10, 27] | Corn plant response rating [11, 17] | Corn plant response rating [11, 18] | Corn plant response rating [11, 19] | Plant response rating, Corn [11, 20] | Plant response rating, Corn [11, 21] | Corn plant response rating [11, 22] | Corn plant response rating [11, 23] | Corn plant response rating [11, 24] | Cocklebur plant response rating [12, 17] | Cocklebur plant response rating [12, 19] | Plant response rating, Cocklebur [12, 21] | Rice plant response rating [13, 17] | Rice plant response rating [13, 25] | Rice plant response rating [13, 26] | Rice plant response rating [13, 27] | Bedstraw plant response rating [14, 17] | Bedstraw plant response rating [14, 19] | Plant response rating, Bedstraw [14, 20] | Plant response rating, Bedstraw [14, 21] | Bedstraw plant response rating [14, 23] | Wheat plant response rating [15, 17] | Wheat plant response rating [15, 18] | Wheat plant response rating [15, 19] | Plant response rating, Wheat [15, 20] | Plant response rating, Wheat [15, 21] | Wheat plant response rating [15, 22] | Wheat plant response rating [15, 23] | Wheat plant response rating [15, 24] | Ducksalad plant response rating [16, 17] | Ducksalad plant response rating [16, 25] | Ducksalad plant response rating [16, 26] | Ducksalad plant response rating [16, 27]
1: Soybean plant response rating [8, 17] | Soybean plant response rating [8, 23]
